14 compounds from patent US7923462B2, “Catechol derivative, pharmaceutical composition containing the same, use of the catechol derivative, and use of the pharmaceutical composition” (Kissei Pharmaceutical Co., Ltd., priority 2007, dated 2011) can be followed below.

Experiment [1] relates to rat cryopreserved hepatocytes. In words: Rat hepatocyte toxicities (cell viability, ATP activity). It counts as cell-based. The settings on record: concentration that shows 50% of the number of viable cells of control, 4 hours at 37° C.
The target in the next experiment is T1, recombinant human COMT (Homo sapiens, UniProt P21964).
T1 construct: GST (N, cleaved yes); made in house; host or cells: E. coli BL21 (DE3) CODON PLUS RP
T1 sequence (P21964 with tags, fused parts or gaps): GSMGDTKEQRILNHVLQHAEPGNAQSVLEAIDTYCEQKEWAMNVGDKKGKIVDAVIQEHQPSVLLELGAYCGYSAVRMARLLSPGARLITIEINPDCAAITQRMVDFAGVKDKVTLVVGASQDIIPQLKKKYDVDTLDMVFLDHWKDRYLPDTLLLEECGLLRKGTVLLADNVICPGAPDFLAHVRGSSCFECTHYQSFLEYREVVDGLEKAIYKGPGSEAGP
Kind of experiment: Human COMT inhibitory potency. It counts as biochemical. The following applies: catechol substrate, [3H]-S-adenosyl-L-methionine, 37° C. 30 minutes.

Experiment [2] can be described thus: Evaluation of plasma L-dopa concentration. It counts as in vivo, Sprague-Dawley rats. The following applies: percentage of control group, test compound 3 mg/kg oral, blood 2 hours later; for Plasma L-dopa (%) 4 hour: L-dopa 5 mg/kg and carbidopa 30 mg/kg oral 4 hours after; for Plasma L-dopa (%) 6 hour: L-dopa 5 mg/kg and carbidopa 30 mg/kg oral 6 hours after.
Experiment [3] has as its system unilateral 6-hydroxydopamine-lesioned hemi-Parkinsonian rats. In words: Potentiation of the efficacy of L-dopa, turning behavior. It counts as in vivo, Sprague-Dawley rats. The settings on record: 10 mg/kg oral with 5 mg/kg L-dopa and 30 mg/kg carbidopa; for Total counts: contralateral rotation counts; for Duration: duration of contralateral turning response.

The structures appear in SMILES notation. Some results are limits rather than exact numbers.

For the compound `Cc1noc(-c2cc(O)c(O)c([N+](=O)[O-])c2)n1` [Comparative example 1, 5-(3-methyl-[1,2,4]oxadiazol-5-yl)-3-nitro-benzene-1,2-diol, reference compound], the concentration for a half-maximal effect (EC50) – broadly, the concentration needed to bring the measured effect to its halfway point – in experiment [1] came out at 172 µM. For the same compound, on recombinant human COMT, the IC50 (in general, the point on the concentration scale where inhibition reaches its midpoint) is 0.0132 µM. Further, in experiment [2], the “Plasma L-dopa (%) 4 hour” value stood at 143.3 ± 13.3% and the “Plasma L-dopa (%) 6 hour” value amounted to 106.9 ± 18.2%.

On to `Cc1nc(-c2cc(O)c(O)c([N+](=O)[O-])c2C(=O)c2ccccc2)no1` [Compound 1-1, [3,4-Dihydroxy-6-(5-methyl-[1,2,4]oxadiazol-3-yl)-2-nitro-phenyl]phenylmethanone], for which, in experiment [3], the Total counts is 2060.8 and the “Duration” value came to 293.8 min. Further, the EC50 in experiment [1] came to 683 µM. In addition, the IC50 on recombinant human COMT came out at 0.0094 µM. In experiment [2], the “Plasma L-dopa (%) 4 hour” value amounted to 182.9 ± 5.0% and the “Plasma L-dopa (%) 6 hour” value turned out to be 189.2 ± 32.8%.

For the compound `CC(=O)c1c(-c2noc(C)n2)cc(O)c(O)c1[N+](=O)[O-]` [Compound 1-2], in experiment [3], the Total counts amounted to 2103.0 and the “Duration” value was found to be 312.5 min. The midpoint of the response in experiment [1], the EC50, lay at 645 µM.

`Cc1nc(-c2cc(O)c(O)c([N+](=O)[O-])c2C(=O)C(C)C)no1` [Compound 1-3, 1-[3,4-dihydroxy-6-(5-methyl-[1,2,4]-oxadiazol-3-yl)-2-nitrophenyl]-2-methylpropane-1-one] registered an EC50 in experiment [1] of 698 µM. In addition, the half-maximal inhibitory concentration (IC50) at recombinant human COMT turned out to be 0.0081 µM.

With `COC(=O)c1c(-c2noc(C)n2)cc(O)c(O)c1[N+](=O)[O-]` [Compound 1-5, methyl 3,4-dihydroxy-6-(5-methyl-[1,2,4]-oxadiazol-3-yl)-2-nitrobenzoate], in experiment [3], the Total counts came out at 2051.9 and the “Duration” value came to 321.3 min. In experiment [1], the EC50 is > 1000 µM. Also, the IC50 on recombinant human COMT was determined as 0.0093 µM.

As for `COCc1nc(-c2cc(O)c(O)c([N+](=O)[O-])c2C(=O)OC)no1` [Compound 1-9], in experiment [1], the half-maximal effective concentration (EC50) was > 1000 µM. On recombinant human COMT, the IC50 was 0.0077 µM.

For the compound `CCOC(=O)c1c(-c2noc(C)n2)cc(O)c(O)c1[N+](=O)[O-]` [Compound 1-14], in experiment [3], the Total counts came out at 1678.4 and the “Duration” value was 275.0 min.

With `Cc1nc(-c2cc(O)c(O)c([N+](=O)[O-])c2C(=O)C2CCCCC2)no1` [Compound 1-20], the IC50 at recombinant human COMT was determined as 0.0087 µM.

In experiment [1], `Cc1nc(-c2cc(O)c(O)c([N+](=O)[O-])c2C(=O)c2ccccc2F)no1` [Compound 1-22] came in with a half-maximal effective concentration (EC50) of 523 µM. Further, the IC50 on recombinant human COMT is 0.0083 µM.

With `Cc1nc(-c2cc(O)c(O)c([N+](=O)[O-])c2C(=O)c2ccno2)no1` [Compound 1-24], in experiment [1], the EC50 was > 1000 µM. The IC50 at recombinant human COMT is 0.0076 µM.

As for `CCOCCc1nc(-c2cc(O)c(O)c([N+](=O)[O-])c2C(C)=O)no1` [Compound 1-37], the IC50 on recombinant human COMT was 0.0047 µM.

On to `Cc1nc(-c2cc(O)c(O)c([N+](=O)[O-])c2C(=O)C(=O)NC2CCCCC2)no1` [Compound 1-40], for which the IC50 at recombinant human COMT was 0.0088 µM.

In the case of `Cc1nc(-c2cc(O)c(O)c([N+](=O)[O-])c2C(=O)C(=O)N(C)C2CCCCC2)no1` [Compound 1-41], the IC50 on recombinant human COMT was 0.0047 µM.

In the case of `Cc1ccc(C(=O)c2cc(O)c(O)c([N+](=O)[O-])c2)cc1` [Tolcapone, 3,4-dihydroxy-4′-methyl-5-nitro-benzophenone, reference compound], the midpoint of the response in experiment [1], the EC50, lay at 34.3 µM.
